Earlier results in patent US12367980B2, “Methods for predicting treatment response in cancers” (Cancer Research Technology Limited, priority 2020, dated 2025).
Like-named read-outs stand apart in the source and are kept apart here.

Test system: ovarian cancer patients
Conditions: for response rate to Doxorubicin monotherapy: expected rate from clinical trials

SMILES: COc1cccc2c1C(=O)c1c(O)c3c(c(O)c1C2=O)C[C@@](O)(C(=O)CO)C[C@@H]3O[C@H]1C[C@H](N)[C@H](O)[C@H](C)O1 [Doxorubicin, doxorubicin]
- response rate to Doxorubicin monotherapy (patients resistant to platinum chemotherapy): 18%
- response rate to doxorubicin (platinum resistant ovarian cancer patients): 18%
- response rate to doxorubicin (platinum sensitive ovarian cancer patients): 52%
- response rate to Doxorubicin monotherapy (platinum sensitive patients (Gordon et al., 2001)): 28%
